# Assay results as given in paper PMC13308190, “Endothelial progenitor cell susceptibility to DNA damaging and DDR-modulating compounds determines endothelial differentiation accuracy” (Stem Cell Research & Therapy, 2026).
# Columns and labels:
# Format in all cases: cell-based, mouse
# mESC [1] = assay: RT-qPCR mRNA expression; conditions: for Cdkn1a mRNA / Cdkn2a mRNA / Glb1 mRNA / Il6 mRNA / Il8 mRNA / Tp53 mRNA: Fig 7A; for Brca1 mRNA / Chk1 mRNA / Rad51 mRNA: Fig 5C; for Atp7a mRNA / Atp7b mRNA / Ctr2 mRNA / Mdr1 mRNA / Mrp1 mRNA / Oct2 mRNA: Fig 2D
# Protocol: Total RNA was purified using the RNeasy Mini Kit (Qiagen, Hilden, Germany). Reverse transcriptase (RT) reaction was performed with the HighCapacity cDNA Reverse Transcription Kit (Applied Biosystems, Darmstadt, Germany) using 900–2000 ng of RNA. Quantitative RT-qPCR analysis was performed using following conditions: (1) 95 °C–10 min; (2) 45 amplification cycles with 95 °C–15 s, 55 °C–15 s, and 72 °C–17 s; (3) 95 °C–1 min, 55 °C–1 min, 65 °C–5 s. If not stated otherwise, analyses were performed in technical triplicates using pooled samples from two independent experiments (each performed with biological duplicates) by use of a CFX96 cycler (BioRad) and the SensiMix SYBR Kit (Bioline, London, UK). The primers used for mRNA expression analyses are listed in Supplementary Table 1. To ensure the specificity of the amplification product, melting curves were recorded at the end of the run. mRNA expression levels were normalized to β-Actin and Gapdh. Relative mRNA expression in mESC or corresponding untreated controls was set to 1.0. Only changes in gene expression of ≤ 0.5- and ≥ 2-fold were considered as biologically relevant. Fold-changes in gene expression are summarized in Supplementary Table 2.
# mESC [2] = assay: EdU incorporation (S-phase activity); conditions: mESC 24 h
# Protocol: S-phase activity of cells was monitored by measuring EdU incorporation using the EdU-Click 488 assay according to the manufacturer’s protocol. Briefly, cells were pulse-treated with 5-ethynyl-2′-deoxyuridine (EdU) for 3 h. Alexa Fluor 488-conjugated reaction cocktail was added (30 min, RT) and nuclei were counterstained with DAPI. The percentage of EdU-positive area/DAPI-positive area was calculated by fluorescence microscopy (Olympus BX43, 20x objective).
# EC d6 [3] = assay: Mitochondrial membrane potential (TMRM-MitoTracker Green); conditions: EC d6 treated 24 h
# Protocol: Mitochondrial membrane potential (ΔΨm) was analyzed by live-cell imaging using TMRM-MitoTracker Green co-staining. Cells were seeded and differentiated on Poly-D-Lysine-fibronectine-coated live-imaging dishes. For staining, cells were incubated with 200nM MitoTracker Green (Invitrogen) and 50 nM TMRM (Invitrogen) in DMEM (30 min, 37 °C, 5% CO2). After washing with PBS, live-cell microscopy was performed using a spinning disc confocal microscope (PerkinElmer) equipped with a 60x oil-immersion objective (N.A = 1.49) and a Hamamatsu C9100 camera (1000 × 1000 pixel) (excitation (MitoTracker Green): 488 nm, excitation (TMRM): 561 nm). The cells were kept at 37 °C in OptiMEM supplemented with 10 mM HEPES during imaging. The images were obtained at emission wavelength of 527 nm (W55) and 615 nm (W70) for 488 nm and 561 nm excitation, respectively.
# EC d4 [4] = assay: Dil-acLDL uptake; conditions: EC d4 treated 48 h
# Protocol: To monitor prototypical functions of endothelial cells, the uptake of fluorescent 1,1-dioctadecyl-3,3,3,3-tetra-methylindocarbocyanine-labeled acetylated LDL (Dil-acLDL) was examined. Briefly, cells were incubated with Dil-acLDL (10 µg/ml, 4 h, 37 °C). After fixation (3.7% cold formaldehyde/PBS (15 min, RT) nuclei were counterstained with DAPI. The uptake of DiI-acLDL was analyzed by fluorescence microscopy (Olympus BX43, 20x objective). Additionally, the response of differentiated EC to inflammatory cytokines was measured. After treatment with a pro-inflammatory cytokine mixture (TNFα/IL-1β, 10 ng/mL) for 1 h, mRNA expression of activated EC markers E-selectin, Icam-1, Vcam-1, Ccl2, eNos, iNos was analyzed (RT-qPCR).
# EC d4 [5] = assay: Beta-galactosidase staining (senescence); conditions: EC d4 48 h
# Protocol: (§1) Beta-galactosidase activity was analyzed using the Cellular Senescence Assay Kit (Cell Biolabs, Inc., San Diego, CA, USA) according to the manufacturer’s instructions. After treatment and/or post-incubation period, the cells were fixed and stained (overnight, 37 °C). For control, untreated cells were incubated with working solution containing citrate-Na2HPO4 buffer at pH 4. The cells were analyzed by light microscopy (Axiovert 40 C, Carl Zeiss AG, 20x objective) and the fraction of beta-galactosidase positive (blue) cells was calculated (5 images per sample).
# EC d6 [6] = assay: Beta-galactosidase staining (senescence); conditions: EC d6 24 h + 24 h post incubation
# Protocol: as §1
# EC d6 [7] = assay: DNA fiber spreading assay; conditions: EC d6 24 h; HU: 5 mM, 1 h
# Protocol: To analyze DNA replication fork progression, the DNA fiber spreading assay was performed. Briefly, cells were pulse-labeled with 20 µM CldU (20 min, 37 °C, 5% C0_2) and immediately afterwards with 200 µM IdU (20 min, 37 °C, 5% C02). Cell suspension was applied onto glass slides followed by cell lysis (0.5% SDS, 200 mM Tris–HCl, 50 mM EDTA). After incubation (6 min, RT), slides were tilted upwards to stretch the fibers, dried 6 min lying horizontally flat and fixed (5 min, RT) in methanol: acetic acid (3:1). After drying (7 min, lying horizontally flat) slides were stored overnight in 70% ethanol (4 °C). The next day samples were incubated in 100% methanol (5 min, RT) followed by denaturation in 2.5 M HCl (1 h, RT) and blocking (5% BSA in PBS, 1 h, 37 °C). DNA Fibers were stained with rat anti-BrdU (1:40) for CldU detection and mouse anti-BrdU (1:70) for IdU detection (in 0.5% BSA/PBS; 1 h, RT). After washing (0.05% Tween 20 in PBS and PBS) incubation with secondary antibodies anti-rat 488 (1:400) and anti-mouse 555 (1:250) was performed (1 h, RT, 0.5% BSA in PBS). Following washing with 0.05% Tween 20 in PBS and PBS, the slides were mounted with Fluoroshield (Sigma [Steinheim, Germany]). DNA fibers were analyzed microscopically (Olympus BX43 fluorescence microscope [40 objective]). The length of CldU (green) and IdU (red) tract was measured using ImageJ software, analyzing 200 fibers per experimental condition.
# [8] = mESC + 10 µM 24 h + 24 h post incubation
# [9] = mESC + 20 µM 24 h + 24 h post incubation
# [10] = mESC + 0.05 µM 24 h + 24 h post incubation
# [11] = mESC + 0.1 µM 24 h + 24 h post incubation
compound,measurement,setting,value
O=c1c2ccccc2nc(/C=C/c2cccnc2)n1Cc1ccccc1 [B02],Cdkn1a mRNA,mESC [1]; [8],0.89 Fold of untreated control
same,Cdkn2a mRNA,mESC [1]; [8],0.97 Fold of untreated control
same,Glb1 mRNA,mESC [1]; [8],1.06 Fold of untreated control
same,Il6 mRNA,mESC [1]; [8],0.98 Fold of untreated control
same,Il8 mRNA,mESC [1]; [8],0.76 Fold of untreated control
same,Tp53 mRNA,mESC [1]; [8],1.09 Fold of untreated control
same,Cdkn1a mRNA,mESC [1]; [9],0.94 Fold of untreated control
same,Cdkn2a mRNA,mESC [1]; [9],0.89 Fold of untreated control
same,Glb1 mRNA,mESC [1]; [9],1.06 Fold of untreated control
same,Il6 mRNA,mESC [1]; [9],1.35 Fold of untreated control
same,Il8 mRNA,mESC [1]; [9],0.93 Fold of untreated control
same,Tp53 mRNA,mESC [1]; [9],0.98 Fold of untreated control
same,Brca1 mRNA,mESC [1]; mESC + 20 µM 24 h,0.95 Fold of mESC
same,Chk1 mRNA,mESC [1]; mESC + 20 µM 24 h,1.33 Fold of mESC
same,Rad51 mRNA,mESC [1]; mESC + 20 µM 24 h,0.90 Fold of mESC
same,Pgc1a mRNA,"mESC [1]; mESC + 20 µM 24 h, Fig 6D",2.40 Fold of untreated control
same,number of EdU-positive cells,mESC [2],not
same,mitochondrial membrane potential,EC d6 [3],significantly reduced
same,LDL uptake in EC d6 progeny of treated EC d4,EC d4 [4],strongest functional defect
"Nc1ccccc1NC(=O)c1ccc(CNC(=O)OCc2cccnc2)cc1 [EST, entinostat]",Cdkn1a mRNA,mESC [1]; [8],2.08 Fold of untreated control
same,Cdkn2a mRNA,mESC [1]; [8],5.82 Fold of untreated control
same,Glb1 mRNA,mESC [1]; [8],0.47 Fold of untreated control
same,Il6 mRNA,mESC [1]; [8],6.25 Fold of untreated control
same,Il8 mRNA,mESC [1]; [8],0.83 Fold of untreated control
same,Tp53 mRNA,mESC [1]; [8],0.83 Fold of untreated control
same,Brca1 mRNA,mESC [1]; mESC + 20 µM 24 h,0.52 Fold of mESC
same,Chk1 mRNA,mESC [1]; mESC + 20 µM 24 h,0.27 Fold of mESC
same,Rad51 mRNA,mESC [1]; mESC + 20 µM 24 h,0.29 Fold of mESC
same,Pgc1a mRNA,"mESC [1]; mESC + 20 µM 24 h, Fig 6D",184.58 Fold of untreated control
same,mitochondrial membrane potential,EC d6 [3],remained largely unaffected
same,percentage of beta-Gal-positive cells,EC d4 [5],increase
same,percentage of beta-Gal-positive cells,EC d6 [6],increase
same,replication fork progression,EC d6 [7],opposite effects
"COc1cccc2c1C(=O)c1c(O)c3c(c(O)c1C2=O)C[C@@](O)(C(=O)CO)C[C@@H]3O[C@H]1C[C@H](N)[C@H](O)[C@H](C)O1 [Dox, doxorubicin]",Cdkn1a mRNA,mESC [1]; [10],2.20 Fold of untreated control
same,Cdkn2a mRNA,mESC [1]; [10],2.02 Fold of untreated control
same,Glb1 mRNA,mESC [1]; [10],1.22 Fold of untreated control
same,Il6 mRNA,mESC [1]; [10],2.74 Fold of untreated control
same,Il8 mRNA,mESC [1]; [10],1.29 Fold of untreated control
same,Tp53 mRNA,mESC [1]; [10],0.86 Fold of untreated control
same,Atp7a mRNA,mESC [1]; mESC + 0.05 µM 24 h,2.50 Fold of control
same,Atp7b mRNA,mESC [1]; mESC + 0.05 µM 24 h,1.82 Fold of control
same,Ctr2 mRNA,mESC [1]; mESC + 0.05 µM 24 h,2.95 Fold of control
same,Mdr1 mRNA,mESC [1]; mESC + 0.05 µM 24 h,4.03 Fold of control
same,Mrp1 mRNA,mESC [1]; mESC + 0.05 µM 24 h,2.38 Fold of control
same,Oct2 mRNA,mESC [1]; mESC + 0.05 µM 24 h,5.33 Fold of control
same,Gpx1 mRNA,"mESC [1]; mESC + 0.05 µM 24 h, Fig 6C",1.54 Fold of untreated control
same,Gpx4 mRNA,"mESC [1]; mESC + 0.05 µM 24 h, Fig 6C",0.62 Fold of untreated control
same,Gstm1 mRNA,"mESC [1]; mESC + 0.05 µM 24 h, Fig 6C",2.08 Fold of untreated control
same,Hmox1 mRNA,"mESC [1]; mESC + 0.05 µM 24 h, Fig 6C",1.14 Fold of untreated control
same,Pgc1a mRNA,"mESC [1]; mESC + 0.05 µM 24 h, Fig 6C",1.78 Fold of untreated control
same,Sod1 mRNA,"mESC [1]; mESC + 0.05 µM 24 h, Fig 6C",1.30 Fold of untreated control
same,Sod2 mRNA,"mESC [1]; mESC + 0.05 µM 24 h, Fig 6C",1.10 Fold of untreated control
same,Gpx4 mRNA,"mESC [1]; mESC + 0.05 µM 24 h, Fig 6F",1.03 Fold of untreated control
same,Slc7a11 mRNA,"mESC [1]; mESC + 0.05 µM 24 h, Fig 6F",0.99 Fold of untreated control
same,Cdkn1a mRNA,mESC [1]; [11],2.09 Fold of untreated control
same,Cdkn2a mRNA,mESC [1]; [11],2.49 Fold of untreated control
same,Glb1 mRNA,mESC [1]; [11],1.35 Fold of untreated control
same,Il6 mRNA,mESC [1]; [11],2.84 Fold of untreated control
same,Il8 mRNA,mESC [1]; [11],1.07 Fold of untreated control
same,Tp53 mRNA,mESC [1]; [11],0.87 Fold of untreated control
same,Atp7a mRNA,mESC [1]; mESC + 0.1 µM 24 h,3.09 Fold of control
same,Atp7b mRNA,mESC [1]; mESC + 0.1 µM 24 h,2.42 Fold of control
same,Ctr2 mRNA,mESC [1]; mESC + 0.1 µM 24 h,4.05 Fold of control
same,Mdr1 mRNA,mESC [1]; mESC + 0.1 µM 24 h,6.26 Fold of control
same,Mrp1 mRNA,mESC [1]; mESC + 0.1 µM 24 h,2.51 Fold of control
same,Oct2 mRNA,mESC [1]; mESC + 0.1 µM 24 h,0.75 Fold of control
same,Brca1 mRNA,mESC [1]; mESC + 0.1 µM 24 h,1.93 Fold of mESC
same,Chk1 mRNA,mESC [1]; mESC + 0.1 µM 24 h,0.68 Fold of mESC
same,Rad51 mRNA,mESC [1]; mESC + 0.1 µM 24 h,1.36 Fold of mESC
same,Pgc1a mRNA,"mESC [1]; mESC + 0.1 µM 24 h, Fig 6D",10.69 Fold of untreated control
same,Gpx4 mRNA,"mESC [1]; mESC + 0.1 µM 24 h, Fig 6F",1.05 Fold of untreated control
same,Slc7a11 mRNA,"mESC [1]; mESC + 0.1 µM 24 h, Fig 6F",1.20 Fold of untreated control
same,number of EdU-positive cells,mESC [2],significant drop
same,mitochondrial membrane potential,EC d6 [3],significantly reduced
same,percentage of beta-Gal-positive cells,EC d4 [5],increase
same,percentage of beta-Gal-positive cells,EC d6 [6],increase
same,replication fork progression,EC d6 [7],did not influence fork speed
same,LDL uptake in EC d6 progeny of treated EC d4,EC d4 [4],noticably reduced LDL uptake
